From BindingDB's records for doi:10.7270/Q2639NCQ (The Scripps Research Institute Molecular Screening Center, 2013) come the findings set out here.

What is called IC50 is the concentration needed to halve the response being measured. The low end stands for inhibition by little substance, the high end for a need for much substance.

Structures are written as SMILES.

The experiment addresses T1, Mitochondrial peptide methionine sulfoxide reductase (Bos taurus, UniProt P54149).
T1 sequence (P54149 whole entry): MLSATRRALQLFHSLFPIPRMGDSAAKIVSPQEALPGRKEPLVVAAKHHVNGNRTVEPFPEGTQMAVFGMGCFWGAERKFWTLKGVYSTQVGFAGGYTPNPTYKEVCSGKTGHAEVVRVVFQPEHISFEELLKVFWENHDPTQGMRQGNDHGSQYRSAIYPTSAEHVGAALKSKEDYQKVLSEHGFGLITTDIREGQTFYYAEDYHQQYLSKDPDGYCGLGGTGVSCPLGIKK
As to `COc1ccc(Nc2ccc(C(F)(F)F)cc2[N+](=O)[O-])cn1` [SMR000688981], the IC50 is greater than 155 µM.

Compound `Cc1ccccc1-n1c(SCc2cccc(F)c2)nc2[nH]ncc2c1=O` [6-[(3-fluorobenzyl)thio]-5-(2-methylphenyl)-2,5-dihydro-4H-pyrazolo[3,4-d]pyrimidin-4-one] had a half-maximal inhibitory concentration (IC50) greater than 155 µM.

`O=C1c2ccccc2C(=O)c2cc(S(=O)(=O)Nc3ccccc3)ccc21` [MLS000585519] returned an IC50 greater than 155 µM.

Turning to `Cc1ccccc1Nc1ncnc2n[nH]cc12` [SMR001556847], the IC50 is greater than 155 µM.

The compound `Cc1cc(OCC(=O)N2CCc3ccccc3C2)c2c(-c3ccccc3)cc(=O)oc2c1` [5-[2-(3,4-dihydro-2(1H)-isoquinolinyl)-2-oxoethoxy]-7-methyl-4-phenyl-2H-chromen-2-one] showed an IC50 greater than 155 µM.

With `CCOC(=O)C(C#N)C=Nc1ccccc1OC` (configuration not stated) [MLS000568396], the IC50 is greater than 155 µM.

`CC(=O)c1cccc(Oc2cc(NN3CCCCC3)c([N+](=O)[O-])cc2[N+](=O)[O-])c1` [1-[3-[2,4-dinitro-5-(1-piperidinylamino)phenoxy]phenyl]ethanone]: the IC50 was greater than 155 µM.

Turning to `O=C(COC(=O)C1=NN(c2ccccc2)C(=O)CC1)Nc1ccc([N+](=O)[O-])cc1C(F)(F)F` [SMR001244149], the IC50 was greater than 155 µM.

In the case of `CSc1nc2nc3c(c-2c2nn[nH]n12)CCCC3` [MLS000071223], the IC50 was greater than 155 µM.

In turn, `Cc1cc([N+](=O)[O-])ccc1Nc1nc2ccccc2n2cnnc12` [N-(2-methyl-4-nitrophenyl)[1,2,4]triazolo[4,3-a]quinoxalin-4-amine] gave a concentration for half-maximal inhibition (IC50) greater than 155 µM.

`Cc1cc(/C=C(/C#N)c2cccc(F)c2)c(C)n1-c1cccnc1` [3-[2,5-dimethyl-1-(3-pyridinyl)-1H-pyrrol-3-yl]-2-(3-fluorophenyl)acrylonitrile] gave an IC50 greater than 155 µM.

Consider `Cc1ccc(-c2cc(C(F)F)nc(N3CCOCC3)n2)cc1`, for which the IC50 is greater than 155 µM.

`[O-][N+]1=c2ccc(Nc3ccccc3)cc2=NC12CCCCC2` [1-oxido-N-phenyl-5-spiro[benzimidazol-1-ium-2,1'-cyclohexane]amine]: the IC50 is greater than 155 µM.

For `CN(C)CCCN1C(=O)c2cccc3c([N+](=O)[O-])ccc(c23)C1=O` [2-[3-(dimethylamino)propyl]-6-nitro-1H-benzo[de]isoquinoline-1,3(2H)-dione], the IC50 is greater than 155 µM.

`CC(N=Nc1ccc(C#N)cc1[N+](=O)[O-])C1C=CC(=O)C=C1` (configuration not stated) [3-nitro-4-[2-[1-(4-oxidanylidenecyclohexa-2,5-dien-1-ylidene)ethyl]hydrazinyl]benzenecarbonitrile] came in with an IC50 greater than 155 µM.

Consider `CC(N=O)c1cc(C(C)(C)C)c(O)c(C(C)(C)C)c1` (configuration not stated), for which the IC50 was greater than 155 µM.

Compound `Cc1nn2c(=O)cc(CSc3ccccc3NC(=O)c3ccccc3)nc2s1` [N-[2-[(2-methyl-5-oxo-[1,3,4]thiadiazolo[3,2-a]pyrimidin-7-yl)methylsulfanyl]phenyl]benzamide] gave an IC50 greater than 155 µM.

`Cc1nc2scc(-c3cccs3)c2c(=O)n1-n1cccc1` [MLS000113688]: the IC50 is greater than 155 µM.

Consider `CCc1noc(C)c1C(=O)Nc1nc(-c2ccc(F)cc2)c(C)s1` [3-ethyl-N-[4-(4-fluorophenyl)-5-methyl-1,3-thiazol-2-yl]-5-methyl-1,2-oxazole-4-carboxamide], for which the IC50 is greater than 155 µM.

Turning to `CC(Nc1cc(N2CCN(S(=O)(=O)N(C)C)CC2)ccc1[N+](=O)[O-])c1ccccc1` (configuration not stated) [MLS000676463], the IC50 is greater than 155 µM.

In the case of `CCN(CC)c1ccc(/C=N/NC(=O)CNC(=O)/C=C/c2ccco2)cc1` [MLS000912185], the IC50 is greater than 155 µM.

In turn, `O=C(N/N=C/c1sc(N2CCOCC2)nc1-c1ccccc1)c1ccc(O)cc1` [MLS000336683] displayed an IC50 greater than 155 µM.

As to `Cn1c2c(c(=O)n(C)c1=O)C(C(F)(F)F)(C(F)(F)F)NC(C1CCCCC1)=N2` [SMR000219726], the IC50 is greater than 155 µM.

Turning to `O=Cc1cn(-c2ccccc2)nc1-c1ccc2c(c1)OCCO2` [3-(2,3-Dihydro-benzo[1,4]dioxin-6-yl)-1-phenyl-1H-pyrazole-4-carbaldehyde], the IC50 is greater than 155 µM.

As for `Cc1cc(C)c2nc(C(F)(F)F)nc(N3CC(C)OC(C)C3)c2c1` (configuration not stated) [4-(2,6-dimethyl-4-morpholinyl)-6,8-dimethyl-2-(trifluoromethyl)quinazoline], the IC50 is greater than 155 µM.

In turn, `CCN(c1ccccc1)c1nc2nonc2nc1NCCO` [2-[6-(Ethyl-phenyl-amino)-[1,2,5]oxadiazolo[3,4-b]pyrazin-5-ylamino]-ethanol] gave an IC50 greater than 155 µM.

`COC(=O)CN(c1nc(C)c(Br)c(OC)n1)S(=O)(=O)c1ccccc1` [[Benzenesulfonyl-(5-bromo-4-methoxy-6-methyl-pyrimidin-2-yl)-amino]-acetic acid methyl ester] yielded an IC50 greater than 155 µM.

The compound `COc1ccc2nc(C)cc(N=NCc3ccc(F)cc3)c2c1` [N-[(4-fluorophenyl)methylideneamino]-6-methoxy-2-methyl-4-quinolinamine] registered an IC50 of 12.8 µM.

Turning to `COc1cc(C2C(C(=O)c3sc(C)nc3C)C(=O)C(=O)N2CCN(C)C)cc(OC)c1OC` (configuration not stated) [1-[2-(dimethylamino)ethyl]-3-[(2,4-dimethyl-5-thiazolyl)-oxomethyl]-4-hydroxy-2-(3,4,5-trimethoxyphenyl)-2H-pyrrol-5-one], the IC50 is greater than 155 µM.

In turn, `c1ccc(-n2nnnc2-n2nnc3ccccc32)cc1` [1-(1-phenyl-1,2,3,4-tetrazol-5-yl)benzotriazole] returned an IC50 greater than 155 µM.

`CC(=O)COc1ccc2c(-c3ccccc3)cc(=O)oc2c1C` [8-methyl-7-(2-oxidanylidenepropoxy)-4-phenyl-chromen-2-one] came in with an IC50 greater than 155 µM.

The compound `Cc1cc(OC(C)C)c2c(-c3ccccc3)cc(=O)oc2c1` [SMR000141385] yielded an IC50 greater than 155 µM.

`Cc1c(O)ccc2c(-c3ccccc3)cc(=O)oc12` [7-hydroxy-8-methyl-4-phenyl-1-benzopyran-2-one] came in with an IC50 greater than 155 µM.

`Cc1ccc(NC(=O)C2CCCO2)cc1[N+](=O)[O-]` (configuration not stated) [SMR000197718] showed an IC50 greater than 155 µM.

In turn, `CCOc1ccc(N(C)S(=O)(=O)c2cc(-c3cc(C)no3)ccc2C)cc1` [SMR000630369] gave an IC50 greater than 155 µM.

`Cc1ccc(NS(=O)(=O)c2ccc3c(c2)C(=O)c2ccccc2C3=O)c(C)c1` [SMR000207645]: the IC50 was greater than 155 µM.

In turn, `Cc1c(OCC(N)=O)ccc2c(-c3ccccc3)cc(=O)oc12` [2-(8-methyl-2-oxidanylidene-4-phenyl-chromen-7-yl)oxyethanamide] gave an IC50 greater than 155 µM.

`CCOc1ccc(N(C)S(=O)(=O)c2cc(-c3cc(C)no3)ccc2CC)cc1` [N-(4-ethoxyphenyl)-2-ethyl-N-methyl-5-(3-methyl-1,2-oxazol-5-yl)benzenesulfonamide]: the IC50 is greater than 155 µM.

For the compound `CNS(=O)(=O)c1cccc(C(=O)OCC(=O)c2cc3ccccc3o2)c1` [SMR000364126], the half-inhibitory concentration (IC50) was greater than 155 µM.

For `O=C(O)Cc1sc(N=NC=CCc2ccccc2)nc1O` [2-[4-oxo-2-[(2E)-2-[(E)-3-phenylprop-2-enylidene]hydrazinyl]-1,3-thiazol-5-yl]acetic acid], the IC50 stood at 97.5 µM.

`Cc1ccc(/C=C/C(=O)Nc2nccs2)o1` [SMR000261703]: the half-inhibitory concentration (IC50) was greater than 155 µM.

Consider `O=Cc1cn(-c2ccccc2)nc1-c1ccc(F)cc1` [3-(4-fluorophenyl)-1-phenyl-1H-pyrazole-4-carbaldehyde], for which the 50% inhibitory concentration (IC50) was greater than 155 µM.

Regarding `CC1=CC(=C(C#N)C#N)C=C(C)N1CCN1CCNCC1` [2-[2,6-dimethyl-1-(2-piperazin-1-ylethyl)pyridin-4-ylidene]propanedinitrile], the IC50 was greater than 155 µM.

`N#Cc1c(NCCCO)nc(-c2ccco2)c2c1CCCC2` had an IC50 greater than 155 µM.

`CCOC(=O)c1c(NC(=O)COC(=O)/C=C/c2ccco2)sc2c1CC(C)(C)NC2(C)C` [2-[[2-[(E)-3-(2-furanyl)-1-oxoprop-2-enoxy]-1-oxoethyl]amino]-5,5,7,7-tetramethyl-4,6-dihydrothieno[2,3-c]pyridine-3-carboxylic acid ethyl ester] had an IC50 greater than 155 µM.

Regarding `COc1ccc(/C=N/NC(=O)c2cc3cc(OC)c(OC)cc3[nH]2)cc1`, the IC50 is greater than 155 µM.

`COC(=O)COc1ccc2oc(=O)cc(-c3cc4cccc(OC)c4o3)c2c1` [MLS001167553] gave an IC50 greater than 155 µM.

`O=C(c1ccccc1)c1coc2c1C(=O)c1ccccc1C2=O` [3-benzoylbenzo[f]benzofuran-4,9-dione] displayed an IC50 greater than 155 µM.

Consider `CCOP(=O)(CCP(=O)(OCC)OCC)OCC` [MLS002702923], for which the IC50 stood at 11 µM.

In turn, `COc1cccc2c1Oc1cc([N+](=O)[O-])cc(N(C)C(C)=O)c1C=C2` [SMR000559347] registered an IC50 greater than 155 µM.

In turn, `COC(=O)COc1ccc2oc(=O)cc(-c3cc4ccccc4o3)c2c1` [MLS001167555] yielded an IC50 greater than 155 µM.

As to `O=c1oc2ccccc2c2c1cnc1ccccc12` [MLS000518195], the half-maximal inhibitory concentration (IC50) was greater than 155 µM.

In turn, `N#Cc1c(N2CCCC2)ccc(Br)c1Cl` [3-bromo-2-chloro-6-tetrahydro-1H-pyrrol-1-ylbenzonitrile] gave an IC50 greater than 155 µM.

`CC(Sc1ncc(C(F)(F)F)cc1Cl)C(=O)NC(N)=O` (configuration not stated) had a concentration for half-maximal inhibition (IC50) greater than 155 µM.

`c1ccc2c(c1)nc(-c1ccncc1)n1nnnc21` [SMR000060326]: the IC50 is greater than 155 µM.

Consider `Cc1ccc(Nc2[nH]nc(C)c2[N+](=O)[O-])cc1C` [(3,4-Dimethyl-phenyl)-(5-methyl-4-nitro-2H-pyrazol-3-yl)-amine], for which the IC50 was greater than 155 µM.

The compound `COc1ccccc1-c1[nH]nc2c1[C@H](C)CC[C@H]2C(C)C` [(4R,7S)-3-(2-methoxyphenyl)-4-methyl-7-propan-2-yl-4,5,6,7-tetrahydro-1H-indazole] came in with an IC50 greater than 155 µM.
